Values quoted from earlier work in patent US20090233914A1, “Composition for treatment of nail infections” (Ondine International, Ltd., priority 2008, published 2009).

Test system: onychomycosis
Settings: for side effects: human, in vivo, po

Q: Which side effects does the source give for `OC(Cn1cncn1)(Cn1cncn1)c1ccc(F)cc1F` [Fluconazole] here?
A: severe side effects

Q: For `COC1=CC(=O)C[C@@H](C)[C@]12Oc1c(Cl)c(OC)cc(OC)c1C2=O` [Griseofulvin], which side effects is on record?
A: undesired side effects

Q: And the “effectiveness of treatment of onychomycosis” value (oral medicine)?
A: largely ineffectual

Q: Which “nail clearing in patients for one year” value (oral, once a day for 90 days) does the source give for `CN(C/C=C/C#CC(C)(C)C)Cc1cccc2ccccc12` [Lamisil, terbinafine] here?
A: 70-80 % of patients

Q: Which side effects does the source give for `CCC(C)n1ncn(-c2ccc(N3CCN(c4ccc(OCC5COC(Cn6cncn6)(c6ccc(Cl)cc6Cl)O5)cc4)CC3)cc2)c1=O` (centres unmarked) [itraconazole] here?
A: somewhat severe
